Source: ChEMBL document CHEMBL1201862, “PubChem BioAssay data set” (2004)
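Five compound concentrations were applied to cells in 96-well plates for 48 hours; endpoints were derived by simple linear interpolation of the resulting dose-response curve. GI50: concentration for 50% inhibition of growth.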 The source made the active and inactive calls. Cut-off read from the data, not from the text of the source: active = GI50 up to about 1.1 µM and inactive = higher.

Tests used:
Experiment in all cases: DTP human tumour cell line panel, 48 h
786-0 = tested on: 786-0
A549 = tested on: A549
COLO 205 = tested on: COLO 205
DMS-273 = tested on: DMS-273
HCC 2998 = tested on: HCC 2998
HL-60 = tested on: HL-60
OVCAR-3 = tested on: OVCAR-3
OVCAR-4 = tested on: OVCAR-4
OVCAR-5 = tested on: OVCAR-5
OVCAR-8 = tested on: OVCAR-8
SK-OV-3 = tested on: SK-OV-3
SR = tested on: SR
UACC-257 = tested on: UACC-257
UACC-62 = tested on: UACC-62
MCF7 = tested on: MCF7

Measured: GI50

N#Cc1cnsc1
inactive: 786-0 > 100 µM | A549 > 100 µM | COLO 205 > 100 µM | DMS-273 > 100 µM | HCC 2998 > 100 µM | HL-60 > 100 µM | OVCAR-3 > 100 µM | OVCAR-4 > 100 µM | OVCAR-5 > 100 µM | OVCAR-8 > 100 µM | SK-OV-3 > 100 µM | SR > 100 µM | UACC-257 > 100 µM | UACC-62 > 100 µM

CC(C)CC/N=c1/cc2n(-c3ccc(Cl)cc3)c3ccccc3nc-2cc1Nc1ccc(Cl)cc1
inactive: A549 15.3 µM | COLO 205 1.95 µM | DMS-273 14.6 µM | HCC 2998 3.86 µM | HL-60 2.51 µM | MCF7 5.36 µM | OVCAR-3 2 µM | OVCAR-4 2.65 µM | OVCAR-5 12.4 µM | OVCAR-8 7.78 µM | SK-OV-3 18.1 µM | UACC-257 7.6 µM | UACC-62 5.52 µM

COC(=O)C(C(=O)C(=O)Nc1c(Cl)cc([N+](=O)[O-])cc1Cl)c1csc(-n2nc(C3=CCCCC3)cc2-c2ccccc2)n1 (centres undefined)
inactive: 786-0 74 µM | A549 64.7 µM | COLO 205 32.1 µM | DMS-273 74.5 µM | HCC 2998 > 100 µM | HL-60 40 µM | OVCAR-3 59 µM | OVCAR-4 > 100 µM | OVCAR-5 35 µM | OVCAR-8 61.7 µM | SK-OV-3 34.3 µM | SR 22.5 µM | UACC-257 46.6 µM | UACC-62 65.8 µM

COC(=O)C1CCC2(CC1)NC(=O)NC2=O (centres undefined)
inactive: 786-0 > 100 µM | A549 > 100 µM | COLO 205 > 100 µM | DMS-273 > 100 µM | HCC 2998 > 100 µM | HL-60 > 100 µM | OVCAR-3 > 100 µM | OVCAR-4 > 100 µM | OVCAR-5 > 100 µM | OVCAR-8 > 100 µM | SK-OV-3 > 100 µM | SR > 100 µM | UACC-257 > 100 µM | UACC-62 > 100 µM

COc1c2ccoc2c(S(=O)(=O)Nc2ccc(Cl)cc2)c2oc(C)cc(=O)c12
inactive: A549 > 100 µM | COLO 205 > 100 µM | DMS-273 > 100 µM | HCC 2998 > 100 µM | HL-60 23.9 µM | MCF7 51.9 µM | OVCAR-3 > 100 µM | OVCAR-4 32.5 µM | OVCAR-5 > 100 µM | OVCAR-8 58.3 µM | SK-OV-3 > 100 µM | UACC-257 > 100 µM | UACC-62 > 100 µM

O=C1CCC(c2nc3cc(Cl)ccc3o2)C(=O)N1 (centres undefined)
inactive: 786-0 > 100 µM | A549 > 100 µM | COLO 205 > 100 µM | DMS-273 > 100 µM | HCC 2998 > 100 µM | HL-60 > 100 µM | OVCAR-3 > 100 µM | OVCAR-4 > 100 µM | OVCAR-5 > 100 µM | OVCAR-8 > 100 µM | SK-OV-3 > 100 µM | SR > 100 µM | UACC-257 > 100 µM | UACC-62 > 100 µM

CCC(C)(C)NC1=C(NC(C)=O)C(=O)c2ccccc2C1=O
inactive: 786-0 > 75 µM | A549 > 75 µM | COLO 205 29.4 µM | DMS-273 53.5 µM | HCC 2998 > 75 µM | HL-60 16.7 µM | OVCAR-3 34.8 µM | OVCAR-4 > 75 µM | OVCAR-8 54.8 µM | SK-OV-3 > 75 µM | SR 31.3 µM | UACC-257 20.3 µM | UACC-62 24.9 µM

COC(=O)/C=C\C1C(C(=O)OC)C2(C(=O)OC)CCC1(C(=O)OC)N2 (centres undefined)
inactive: 786-0 15.3 µM | A549 20.4 µM | COLO 205 4.19 µM | DMS-273 18.2 µM | HCC 2998 17.3 µM | HL-60 2.51 µM | OVCAR-3 15.3 µM | OVCAR-4 19.1 µM | OVCAR-5 20 µM | OVCAR-8 7.19 µM | SK-OV-3 17.9 µM | SR 5.37 µM | UACC-257 6.5 µM | UACC-62 15.9 µM
